Earlier results on two molecules are cited in patent US20250041318A1, “STERILANTS COMPOSITION, KITS AND METHODS OF USE THEREOF” (priority 2021, published 2025).

Usually Ki stands for a dissociation constant, usually derived from enzyme kinetics or from competition with a known ligand. The IC50 is the concentration that gives 50% inhibition.

The subject of data set [1] is pancreatic cancer. Conditions: preclinical mouse model of pancreatic cancer.
The target of data set [2] is LDH from goat liver (LDH-A4).
For data set [3], the system named is LDH isozymes (LDH-A4, LDH-B4, LDH-C4).
The target of data set [4] is LDH from goat heart (LDH-B4).
Data set [5] has as its target LDH from goat testis (LDH-C4).
Where [6] appears, read: Lineweaver-Burk reciprocal plots.

Structures are written as SMILES. Like-named read-outs stand apart in the source and are kept apart here.

As for `CC(C)[C@]12O[C@H]1[C@@H]1O[C@]13[C@]1(O[C@H]1C[C@H]1C4=C(CC[C@@]13C)C(=O)OC4)[C@@H]2OCOP(=O)(O)O` [Minnelide], the “Efficacy compared with gemcitabine” value in data set [1] is reported as “even more effective than gemcitabine”.
For the molecule `Cc1cc2c(C(C)C)c(O)c(O)c(C=O)c2c(O)c1-c1c(C)cc2c(C(C)C)c(O)c(O)c(C=O)c2c1O` [gossypol], the Ki in data set [2] (read-out: Ki against NAD) is 94 µM; in data set [2] (read-out: Ki against NADH), 33 µM; in data set [2] (read-out: Ki against lactate) it was 85 µM; in data set [2] (read-out: Ki against pyruvate), 20 µM; in data set [4] (read-out: Ki against NAD) it was 108 µM; in data set [4] (read-out: Ki against NADH) it was 43 µM. Moreover, the inhibition constant Ki in data set [4] (read-out: Ki against lactate) is 85 µM; in data set [4] (read-out: Ki against pyruvate), 34 µM; in data set [5] (read-out: Ki against NAD), 83 µM; in data set [5] (read-out: Ki against NADH) it was 45 µM; in data set [5] (read-out: Ki against lactate), 125 µM; in data set [5] (read-out: Ki against pyruvate), 29 µM. Further, in data set [3] (3.3 mM lactic acid and 1.8 mM NAD at 25 degrees C. and pH 9.0, read-out: IC50 for the lactate oxidation), the IC50 is 125 µM. Besides, the “Manner of inhibition when NAD and NADH were varied as substrates” value in data set [3] (setting [6]) is listed as “competitive”. Besides, in data set [3] (setting [6]), the “Manner of inhibition with respect to pyruvate and lactate” value was “non-competitive”.
